The subject of one data set is U251. Kind of data set: 39-cancer cell panel assay: U251. The following applies: Homo sapiens, U-251, CNS. The data set is classed as cell-based.
A further data set has as its system HCT-116. Briefly: 39-cancer cell panel assay: HCT-116. The data set is classed as cell-based. The following applies: Homo sapiens, Co.
Another data set relates to MKN45. Briefly: 39-cancer cell panel assay: MKN45. The data set is classed as cell-based. The following applies: Homo sapiens, MKN-45, St.
Data set [1] can be described thus: Cytotoxicity assay (Cell Counting Kit-8 / WST-8) on DLD-1 cells. The data set is classed as cell-based, human. The following applies: human, DLD-1 colorectal adenocarcinoma cells; DLD-1, original medium, normal oxygen, 100 μM, 24 h.
The test system of another data set is HDF cells. Kind of data set: Cytotoxicity assay (Cell Counting Kit-8 / WST-8) on HDF cells. The data set is classed as cell-based. The following applies: Homo sapiens. On the procedure: For hypoxia and nutrient-deprived culture conditions, cells were incubated under 1% oxygen in glucose and glutamine-free DMEM (Gibco) without FBS.
DLD-1 or HDF cells were seeded at 2.5 × 10^4 cells/well on a 96-well plate with normal medium, and cultured overnight under normal culture condition. The cells were washed with PBS and the medium was replaced to either normal medium or glucose and glutamine-free DMEM without FBS. Test compounds or DMSO as a control were added to the wells. The cells in normal medium were cultured under normal culture conditions, while cells in nutrient-deprived medium were cultured under hypoxia condition. After 24 or 48 h incubation, the cells were washed with PBS, 100 μl of fresh normal medium, and 10 μl of Cell Counting Kit-8 solution (Donjindo, Japan) was added to each well. After 3 h incubation under normal culture condition, the absorbance was measured at 450 nm using SpectraMax M2e-TUY microplate reader (Molecular Devices). Cell viability of test wells was calculated based on absorbance of control wells containing DMSO according to manufacturer’s protocol.

A further data set has as its system SF-539. Briefly: 39-cancer cell panel assay: SF-539. The data set is classed as cell-based. The following applies: Homo sapiens, CNS.
A further data set deals with T1, Complex III (Bos taurus, UniProt P00157).
T1 construct: from tissue; host or cells: bovine mitochondrial fraction / sub-mitochondrial particles
Kind of data set: Quinol oxidase (complex III) activity, bovine mitochondria. The data set is classed as biochemical. The following applies: ubiquinol oxidase activity.

Another data set relates to DMS273. Briefly: 39-cancer cell panel assay: DMS273. The data set is classed as cell-based. The following applies: Homo sapiens, DMS-273, Lu.
The next data set concerns MCF-7. Briefly: 39-cancer cell panel assay: MCF-7. The class given is cell-based. The following applies: Homo sapiens, MCF7, Br.
The mark [2] stands for this setting: read-out: IC50 (μM) HDF (24 h) Hypoxia nutrient (-), hypoxia (1% oxygen), nutrient (-).
[3] abbreviates: read-out: IC50 (μM) HDF (24 h) Normoxia nutrient (+), normoxia, nutrient (+).

Each structure is given as a SMILES string. Where two headings read alike, the source gives them in different places. Bounds are passed on as bounds.

As for `C/C(=C\Cc1c(O)c(Cl)c(C)c(C=O)c1O)CC/C=C(\C)[C@@H]1CC(=O)C(C)(C)O1` [Compound 1, ascofuranone], the GI50 in the data set on U251 was determined as 1.5 µM; with HCT-116 it was 5.1 µM; in the data set with MKN45, 10 µM; with SF-539 it was 1.7 µM; with DMS273, 5.9 µM; with MCF-7, 9 µM. In addition, in [1], the viability at 24 h, 100 µM is around 80%. Further, the half-inhibitory concentration (IC50) in the data set with HDF cells (setting [2]) is 1.5 ± 0.18 µM; with HDF cells (setting [3]), above 100 µM. Further, the inhibition at 5 µM against Complex III worked out at 36 ± 1.2%.

As to `CC(C)=CCC/C(C)=C/CC/C(C)=C/Cc1c(O)c(Cl)c(C)c(C=O)c1O` [Compound 8], the GI50 came to 0.43 µM in the data set on U251; 0.46 µM in the data set with HCT-116; 6.4 µM with MKN45; 0.24 µM in the data set on SF-539; 0.45 µM in the data set on DMS273; 1.3 µM with MCF-7. Further, the 50% inhibitory concentration (IC50) with HDF cells (setting [2]) was found to be 0.16 ± 0.023 µM; with HDF cells (setting [3]), 61 ± 5.3 µM. This compound yielded an inhibition at 5 µM against Complex III above 80%.

In general, GI50 refers to the concentration giving 50% growth inhibition. Broadly, the viability is a per cent measure of how many cells are alive, often set against a control. The term IC50 denotes the concentration needed to halve the response being measured. For orientation: inhibition means the drop in the measured response relative to a control, in per cent. Higher therefore signals a response far below the control.

The record behind these values is article PMC6131557, “Selective Cytotoxicity of Dihydroorotate Dehydrogenase Inhibitors to Human Cancer Cells Under Hypoxia and Nutrient-Deprived Conditions” (Frontiers in Pharmacology, 2018).
